Data: US4672066A, “Derivatives of 4-acetyl-3-hydroxy-2-alkyl-phenoxycarboxylic acids” (Hoffmann-La Roche Inc., priority 1985, dated 1987)
Like-named read-outs stand apart in the source and are kept apart here.

Legend:
PAF [1] = biological target: T1, PAF (Canis lupus familiaris, UniProt A0A8I3NSH0); experiment: PAF Radioreceptor Binding Assay; conditions: dog platelets, 3H-PAF
T1 construct: followed by 2×10^7 dog platelets; from tissue; host or cells: washed platelets from citrate-treated dog blood
T1 sequence (A0A8I3NSH0 1-343): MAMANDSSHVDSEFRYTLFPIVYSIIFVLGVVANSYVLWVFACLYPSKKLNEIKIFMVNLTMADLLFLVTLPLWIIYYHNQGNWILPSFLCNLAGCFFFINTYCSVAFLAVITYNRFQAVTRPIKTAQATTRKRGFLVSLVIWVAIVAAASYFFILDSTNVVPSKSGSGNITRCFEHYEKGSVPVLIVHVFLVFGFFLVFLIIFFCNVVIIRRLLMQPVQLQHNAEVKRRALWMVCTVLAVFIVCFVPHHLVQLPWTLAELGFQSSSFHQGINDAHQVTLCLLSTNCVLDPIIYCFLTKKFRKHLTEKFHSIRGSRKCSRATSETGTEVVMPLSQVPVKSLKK
Procedure: Platelet rich plasma is prepared by centrifugation of citrate-treated dog blood. Acidification to pH 6.5 with 0.15 M citric acid and centrifugation for 10 minutes at 1000 xg yields a platelet pellet which is then washed by resuspension in EDTA-Phosphate Buffered Saline (PBS) and recentrifuged. The washed platelet preparation is adjusted to 2×10^7 platelets/50 μl in 0.1% BSA-PBS. […] After mixing, incubating for 10 minutes at room temperature, and centrifuging for 1 minute in a Beckman Microfuge B (8000 xg), the pellet is removed by clipping off the tip of the tube, the platelets are solubilized with 200 μl of 50% methanol, and counted in 10 ml of Aquasol. […] Results obtained with representative compounds of the present invention in this assay are summarized hereinafter in Tables I, II and III.

TXA2 synthase = biological target: T2, TXA2 synthase (Homo sapiens, UniProt P24557); experiment: Thromboxane Synthase Inhibition, In Vitro; format: biochemical; conditions: at 1 μM (value in parentheses), human platelet microsomes
T2 construct: microsomal fractions from human platelets as enzyme source; from tissue; host or cells: microsomal fraction of human platelets
T2 sequence (P24557 1-533): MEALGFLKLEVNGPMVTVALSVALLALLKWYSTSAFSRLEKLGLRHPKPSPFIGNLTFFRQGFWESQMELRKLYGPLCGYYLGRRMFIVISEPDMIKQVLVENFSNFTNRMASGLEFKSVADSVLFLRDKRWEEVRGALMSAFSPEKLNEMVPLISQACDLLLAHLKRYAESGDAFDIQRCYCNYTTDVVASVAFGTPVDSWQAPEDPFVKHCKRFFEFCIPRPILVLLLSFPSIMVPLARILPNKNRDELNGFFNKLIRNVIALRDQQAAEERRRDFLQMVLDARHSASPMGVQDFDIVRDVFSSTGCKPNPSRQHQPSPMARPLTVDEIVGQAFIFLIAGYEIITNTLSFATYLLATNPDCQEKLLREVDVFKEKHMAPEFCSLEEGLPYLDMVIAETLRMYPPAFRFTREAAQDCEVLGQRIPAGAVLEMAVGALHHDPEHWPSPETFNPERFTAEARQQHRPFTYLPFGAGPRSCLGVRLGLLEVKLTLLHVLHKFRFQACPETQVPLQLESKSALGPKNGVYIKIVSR
Procedure: TXA2 synthase activity is measured by following the conversion of ^14 C-prostaglandin endoperoxide (PGH2) to ^14 C-thromboxane A2 (TXA2) using microsomal fractions from human platelets as enzyme source. In the aqueous incubation medium, the TXA2 decomposes rapidly into TXB2. The amount of TXA2 synthase is adjusted so that under the conditions of the assay approximately 80-90% of the substrate, PGH2, is converted to product in control tubes. To prepare ^14 C-PGH2, ^14 C-AA (50-60 mCi/mmole; Rose Chem.) is incubated with sheep seminal vesicular gland microsomes for 1.5 minutes at 37° C. and then the ^14 C-PGH2 is extracted with diethylether, purified on columns of Sephadex LH-20 or silicic acid, and stored in acetone at -70° C. Incubations are done as follows. Sufficient ^14 C-PGH2 yield a final substrate concentration of 10 μM (~30,000 cpm) is added to the incubation tubes and then the acetone is removed under nitrogen. […] The tubes are incubated at 22° C. for 2 minutes, the reaction is stopped and then the radioactive products and the unconverted PGH2 are extracted and analyzed by thin layer chromatography. […] The amount of ^14 C-PGH2 converted to products was used as a measure of TXA2 synthase activity. Inhibitors were tested initially at a final concentration of 100 μM. Results obtained with representative compounds of the present invention in this assay are summarized hereafter in Table I, II and III.

SRS-A = experiment: Guinea Pig Ileum, In Vitro (SRS-A antagonism)
Procedure: The guinea pig ileum bioassay system has been described by Orange and Austen, Adv. Immunol. 10: 104-144 ([…]). A 1.5 cm segment is removed from animals weighting 300-400 g. and suspended in an organ bath containing 10 ml. of Tyrodes solution with 10^-6 M atropine sulfate and 10^-6 M pyrilamine maleate. The bath is maintained at 37° C. and aerated with a mixture of 95% oxygen and 5% carbon dioxide. The SRS-A utilized in this screen is obtained by challenging chopped lung fragments from actively sensitized guinea pigs with egg albumin, in vitro. A dose-response curve to SRS-A challenge is established for the ileum. The dose of SRS-A which gives 50% of the maximal contraction (EC50) is then used for subsequent challenge. The drug concentration which inhibits, by 50%, the SRS-A induced constriction of the guinea pig ileum is determined.

PAF [2] = experiment: PAF-Induced Rat Skin Wheal Test; format: in vivo, Sprague-Dawley rats; conditions: for inhibition of PAF-induced rat skin wheal: 5 mg/kg i.v. (1 min. pretreatment)
Procedure: This test evaluates the ability of compounds to inhibit PAF-induced increases in vascular permeability in the skin of Sprague-Dawley rats. PAF induces a dose-dependent skin wheal response in this system over a dose range of 0.0001 to 1 pg/0.05 ml injection. The profound vasoactive activity of PAF is emphasized by the fact that the maximum skin wheal response is considerably greater than that obtained with LTE and an EC50 response is elicited at a 10-fold lower dose. For drug screening purposes, 5 ng of PAF is injected intradermally into anesthetized rats which had been pretreated for 30 minutes with an antihistamine (pyrilamine maleate, 50 mg/kg, i.p.) and an antiserotonin compound (methylsergide maleate, 4 mg/kg, i.p.). Immediately thereafter, the test compound is injected intravenously into the tail vein of the animal. This is followed by an intravenous injection of Evan's blue dye (0.5% in saline). Thirty minutes later the animals are sacrificed and the increase in vascular permeability induced by the migration of dye into the injection point in the skin is determined. For this purpose, rats are sacrificed by cervical dislocation, the dorsal skin is removed, the long and short axis of each […] is measured with a metric vernier caliper and the average diameter is obtained.

PAF [3] = experiment: PAF-Induced Guinea Pig Bronchoconstriction Test; format: in vivo, guinea pig (Hartley); conditions: for inhibition of PAF-induced bronchoconstriction: 1.0 mg/kg i.v., 1 min pretreatment
Procedure: Male guinea pigs (Hartley strain) weighing 300 to 500 g are anesthetized with urethane (2 g/kg) intraperitoneally and a polyethylene cannula is inserted into the jugular vein for drug administration. Tracheal pressure is recorded from a cannula inserted in the trachea and connected to a Statham pressure transducer. Propranolol (0.1 mg/kg) is administered intravenously five minutes before challenge with synthetic PAF, the animals's skeletal muscles are then paralyzed with succinylcholine (1.2 mg/kg i.v.), and the animal is respirated using a Harvard small animal respirator operating at 40 breaths/min and 2.5 cc stroke volume. Under these conditions PAF induces a dose-dependent increase in ventilatory pressure over a dose range of 0.5 to 5 pg/kg i.v. The bronchoconstrictive effect of PAF occurs at approximately a 10-fold lower dose than that obtained with LTE. For screening purposes animals are challenged with a single dose of PAF (10 pg/kg i.v.).
Test compounds are screened by either the intravenous route (1.0 mg/kg i.v., 1 min pretreatment) or oral route (100 mg/kg p.o., 2 hour pretreatment). The peak increase in ventilatory pressure (cm H2 O) is recorded for three control animals and five drug-treated animals and the percent inhibition determined.

leukotriene E4 (LTE4) = experiment: LTE4-Induced Guinea Pig Bronchoconstriction Test; format: in vivo; conditions: 10 mg/kg i.v.
Procedure: In this test system, the ability of a drug to inhibit the bronchoconstriction induced in guinea pigs by leukotriene E4 (LTE4) is measured. A maximally constrictory dose of LTE4 is injected into guinea pigs which have been pretreated with propranolol (0.1 mg/kg, i.v.) for 5 minutes prior to challenge. The bronchoconstriction (in cm H2 O) elicited in animals pretreated intravenously for 30 seconds (at 10 mg/kg) or orally for 2 hours (at 100 mg/kg) with the test drug prior to LTE4 challenge is compared to that elicited in the absence of the test compound to determine the in vivo activity of the drug.

[4] = Table II, read-out: TXA2 Synth. Inhib. % at (1μM)
[5] = Table II, read-out: SRS Antagonism IC50
[6] = Table I, read-out: SRS-A Antagonism IC50
[7] = Table III, read-out: TXA2 Synth. Inhib. % at (1 μM)

## CCCc1c(OCCCCCC(=O)NCCCCc2cncnc2)ccc(C(C)=O)c1O [drawing 31]
PAF [1]; Table II
  IC50: 550 nM
TXA2 synthase; [4]
  inhibition at 1 µM: 66%
SRS-A; [5]
  IC50: 10000 nM

## CCCCCCCCCCCCCCCCOCC(COP(=O)([O-])OCC[N+](C)(C)C)OC(C)=O (centres unmarked) [PAF, reference compound]
PAF [2]; compared with LTE
  EC50 response in skin wheal, dose lower than with LTE: 10 fold
PAF [3]; i.v., compared with LTE
  bronchoconstrictive effect of PAF, dose lower than that with LTE: ~10 fold

## CCCc1c(OCc2cccc(C(=O)NCCCCc3cccnc3)c2OCC)ccc(C(C)=O)c1O [Example 36, 3-[(4-Acetyl-3-hydroxy-2-propylphenoxy)-methyl]-2-ethoxy-[4-(3-pyridinyl)butyl]benzamide]
PAF [3]
  inhibition of PAF-induced bronchoconstriction: 96±2%

## CCCc1c(OCc2ccc(C(=O)NC(C)CCCc3cccnc3)cc2)ccc(C(C)=O)c1O (centres unmarked) [Example 34, 4-[(4-Acetyl-3-hydroxy-2-propylphenoxy)-methyl]-N-[1-methyl-4-(3-pyridinyl)butyl]benzamide]
PAF [2]
  inhibition of PAF-induced rat skin wheal: 63±4%
PAF [3]
  inhibition of PAF-induced bronchoconstriction: 85±8%

## CCCc1c(OCCCCCC(=O)OCCCc2cccnc2)ccc(C(C)=O)c1O.Cl [Example 28, 6-(4-Acetyl-3-hydroxy-2-propylphenoxy)-hexanoic acid, 3-(3-pyridinyl)propyl ester hydrochloride]
Leukotriene E4 (LTE4)
  inhibition of LTE4-induced bronchoconstriction: 87%

## CCCc1c(OCC#CCCCC(=O)NCCCCc2cccnc2)ccc(C(C)=O)c1O [drawing 35]
PAF [1]; Table II
  IC50: 600 nM
SRS-A; [5]
  IC50: 700 nM

## CCCc1c(OCc2ccc(C(=O)NCCCCc3cccnc3)c(OCC)c2)ccc(C(C)=O)c1O [Example 37, 4-[(4-Acetyl-3-hydroxy-2-propylphenoxy)-methyl]-2-ethoxy-N-[4-(3-pyridinyl)butyl]benzamide]
PAF [3]
  inhibition of PAF-induced bronchoconstriction: 96±1%

## CCCc1c(OCC(O)COc2ccc3c(=O)cc(C(=O)O)oc3c2CCC)ccc(C(C)=O)c1O (centres unmarked) [7-[3-(4-acetyl-3-hydroxy-2-propylphenoxy)-2-hydroxypropoxy]-4-oxo-8-propyl-4H-1-benzopyran-2-carboxylic acid, reference compound]
SRS-A; standard SRS-A antagonist, read-out: IC50, SRS-A induced constriction of the guinea pig ileum
  IC50: 35 nM

## CCCc1c(OCCCCCC(=O)NCCSc2cccnc2)ccc(C(C)=O)c1O
PAF [1]; Table II
  IC50: 1000 nM
TXA2 synthase; [4]
  inhibition at 1 µM: 35%
SRS-A; [5]
  IC50: 1000 nM

## CCCc1c(OCCCCCC(=O)NCCCCc2cccnc2)ccc(C(C)=O)c1O.Cl [Example 4, 6-(4-Acetyl-3-hydroxy-2-propylphenoxy)-N-[4-(3-pyridinyl)butyl]hexanamide hydrochloride]
PAF [1]; Table I
  IC50: 700 nM
Leukotriene E4 (LTE4)
  inhibition of LTE4-induced bronchoconstriction: 95%
SRS-A; [6]
  IC50: 6000 nM

## CCCc1c(OCCCCCNC(=O)NCCCCc2cccnc2)ccc(C(C)=O)c1O [Example 29, N-[5-(4-Acetyl-3-hydroxy-2-propylphenoxy)-pentyl]-N'-[4-(3-pyridinyl)butyl]urea]
PAF [1]; Table III
  IC50: 900 nM
TXA2 synthase; [7]
  inhibition at 1 µM: 89%
PAF [3]
  inhibition of PAF-induced bronchoconstriction: 68±10%

## CCCc1c(OCCCC(=O)NCCCCc2cccnc2)ccc(C(C)=O)c1O [Example 5, 4-(4-Acetyl-3-hydroxy-2-propylphenoxy)-N-[4-(3-pyridinyl)butyl]butanamide]
PAF [1]; Table I
  IC50: 250 nM
TXA2 synthase; Table I, read-out: TXA2 Syn. Inhib. (1μM)
  inhibition at 1 µM: 89%
TXA2 synthase; [7]
  inhibition at 1 µM: 89%
PAF [3]
  inhibition of PAF-induced bronchoconstriction: 64±12%
SRS-A; [6]
  IC50: 5000 nM

## CCCc1c(OCCCC#CC(=O)NCCCCc2cccnc2)ccc(C(C)=O)c1O [Example 21, 6-(4-Acetyl-3-hydroxy-2-propylphenoxy)-N-[4-(3-pyridinyl)butyl]-2-hexynamide]
PAF [2]
  inhibition of PAF-induced rat skin wheal: 62±3%
PAF [3]
  inhibition of PAF-induced bronchoconstriction: 98±10%
